{"source": "paper PMC8156206", "about": "“Novel N,N′-Disubstituted Selenoureas as Potential Antioxidant and Cytotoxic Agents” (Antioxidants, 2021)", "key": {"HCT-116 cells (colon)": {"tested_on": "HCT-116 cells (colon)", "assay": "MTT cell viability assay, HCT-116", "assay_type": "cell-based", "settings": "Homo sapiens, HCT-116; 48 h, MTT, mean ± SD; read-out: IC50 HCT-116 (colon)", "method": "(§1) Cell lines were purchased from the American Type Culture Collection (ATCC). MCF-7, HTB-54, BEAS-2B and 184B5 cell lines were grown in RPMI 1640 medium (Gibco) supplemented with 10% fetal bovine serum (FBS; Gibco), 100 units/mL penicillin, and […] streptomycin (Gibco). HT-29 and HCT-116 cell lines was cultured in McCoy’s 5A (Gibco), 10% FBS, 100 units/mL penicillin, and 100 μg/mL streptomycin. Cells were maintained at 37 °C and 5% CO2. Culture medium was replaced every three days.\n(§2) A cell viability assay of each compound was carried out using an MTT assay. Each selenourea was dissolved in dimethyl sulfoxide (DMSO) at a concentration of 0.01 M. Serial dilutions were prepared with non-supplemented culture medium. Cytotoxic activity of each selenourea was determined at two different concentrations (10 and 50 µM) in MCF-7, HTB-54, and HT-29 cells. In addition, selected compounds were tested at seven different concentrations (0.1, 1, 5, 10, 25, 50, 100 µM) on MCF-7, HT-29, HCT-116, HTB-54, 184B5, and BEAS-2B cells. The number of passages before defrosting the cells was 3, and they were kept under culture up to a maximum of 15.\n(§3) Briefly, 1 × 10^4 cells/well were grown in 96-well plates for 24 h. Then, these cells were incubated with either DMSO (negative control) at 5 µM or a different concentration of each tested selenourea for 48 h. A volume of 20 µL of MTT was added 150 min before the termination point to measure cellular viability. After this time, culture medium was removed. The resultant formazan crystals were dissolved in 50 µL of DMSO, and absorbance was measured at 570 nm. Results are expressed as IC50, the half maximal inhibitory concentration. This value was calculated using GraphPad Prism 7 software by nonlinear curve fitting. Furthermore, the selectivity index (SI) was calculated as the ratio of the IC50 values determined for the non-malignant and the tumoral cells (IC50 (184B5)/IC50 (MCF-7) or (IC50 (BEAS-2B)/IC50 (HTB-54). Data were obtained from at least three independent experiments performed in triplicates."}, "[1]": {"tested_on": "HT-29 cells (colon carcinoma)", "assay": "MTT cell viability assay, HT-29", "assay_type": "cell-based", "settings": "Homo sapiens, 48 h, MTT", "summary_of_the_method": "(§4)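 Cells at 1 × 10^4/well grown 24 h, then treated 48 h with selenourea at 10 and 50 µM (selected compounds 0.1–100 µM), DMSO as negative control. MTT added 150 min before end, formazan read at 570 nm; IC50 by nonlinear fit, ≥3 independent experiments in triplicate.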"}, "HCT-116 (colon cancer)": {"tested_on": "HCT-116 (colon cancer)", "assay": "cells", "assay_type": "cell-based", "description": "(§5) The dose–response was also studied in the same 60 cancer cell lines, with outstanding results. […] Table 2 summarizes the GI50, TGI, and LC50 values of representative cell lines. Full data mean GI50 graphs are provided in the Supplementary Materials."}, "NCI-60 cell line panel": {"tested_on": "NCI-60 cell line panel", "assay": "cells", "assay_type": "cell-based", "description": "as §5"}, "SK-MEL-5 (melanoma)": {"tested_on": "SK-MEL-5 (melanoma)", "assay": "cells", "assay_type": "cell-based", "description": "as §5"}, "SF-593 (CNS cancer)": {"tested_on": "SF-593 (CNS cancer)", "assay": "cells", "assay_type": "cell-based", "description": "as §5"}, "COLO-205 (colon cancer)": {"tested_on": "COLO-205 (colon cancer)", "assay": "cells", "assay_type": "cell-based", "description": "as §5"}, "[2]": {"tested_on": "OVACAR-3 (ovarian cancer)", "assay": "cells", "assay_type": "cell-based", "description": "as §5"}, "[3]": {"tested_on": "MDA-MB-468 (breast cancer)", "assay": "cells", "assay_type": "cell-based", "description": "as §5"}, "UO-31 (renal cancer)": {"tested_on": "UO-31 (renal cancer)", "assay": "cells", "assay_type": "cell-based", "description": "as §5"}, "M14 (melanoma)": {"tested_on": "M14 (melanoma)", "assay": "cells", "assay_type": "cell-based", "description": "as §5"}, "BT-549 (breast cancer)": {"tested_on": "BT-549 (breast cancer)", "assay": "cells", "assay_type": "cell-based", "description": "as §5"}, "[4]": {"tested_on": "MDA-MB-231/ATCC (breast cancer)", "assay": "cells", "assay_type": "cell-based", "description": "as §5"}, "[5]": {"tested_on": "BEAS-2B cells (lung non-malignant derived cell line)", "assay": "MTT cell viability assay, BEAS-2B", "assay_type": "cell-based", "settings": "Homo sapiens, 48 h, mean ± SD", "method": "as §1, §2, §3"}, "[6]": {"tested_on": "HTB-54 cells (lung adenocarcinoma)", "assay": "MTT cell viability assay, HTB-54", "assay_type": "cell-based, human", "summary_of_the_method": "as §4"}}}
{"smiles": "COc1ccc(NC(=[Se])NC23CC4CC(CC(C4)C2)C3)cc1", "note": "[Compound 6c, N´-adamantyl-N-(4-methoxyphenyl)selenourea]", "values": [{"measurement": "IC50", "setting": "HCT-116 cells (colon)", "value": "3.6 ± 0.74", "unit": "µM"}, {"measurement": "IC50", "setting": "[1]; HT-29, mean ± SD, read-out: IC50 HT-29 (colon)", "value": "5.6 ± 1.24", "unit": "µM"}, {"measurement": "viability at 10 µM", "setting": "[1]; HT-29, 10 µM, read-out: cell viability, percentage of live cells", "value": 34.6, "unit": "%"}, {"measurement": "viability at 50 µM", "setting": "[1]; HT-29, 50 µM, read-out: cell viability, percentage of live cells", "value": 25.7, "unit": "%"}, {"measurement": "TGI", "setting": "HCT-116 (colon cancer); HCT-116, NCI-60", "value": 2.75, "unit": "µM"}, {"measurement": "CC50", "setting": "HCT-116 (colon cancer); Homo sapiens, HCT-116, read-out: LC50", "value": 6.03, "unit": "µM"}, {"measurement": "GI50", "setting": "HCT-116 (colon cancer); Homo sapiens, HCT-116, NCI-60", "value": 1.29, "unit": "µM"}, {"measurement": "GI50", "setting": "NCI-60 cell line panel; average for the 60 cell lines", "value": 1.49, "unit": "µM"}, {"measurement": "average TGI", "setting": "NCI-60 cell line panel; average for the 60 cell lines", "value": 9.17, "unit": "µM"}, {"measurement": "LC50", "setting": "NCI-60 cell line panel; read-out: LC50 values against 10 of the NCI60 cancer cell lines", "value": "4.27 to 9.33", "unit": "µM"}, {"measurement": "CC50", "setting": "SK-MEL-5 (melanoma); Homo sapiens, SK-MEL-5, read-out: LC50", "value": 4.27, "unit": "µM"}, {"measurement": "GI50", "setting": "SK-MEL-5 (melanoma); Homo sapiens, SK-MEL-5, NCI-60", "value": 0.56, "unit": "µM"}, {"measurement": "TGI", "setting": "SK-MEL-5 (melanoma); SK-MEL-5, NCI-60", "value": 1.78, "unit": "µM"}, {"measurement": "GI50", "setting": "SF-593 (CNS cancer); SF-593, NCI-60", "value": 1.91, "unit": "µM"}, {"measurement": "TGI", "setting": "SF-593 (CNS cancer); SF-593, NCI-60", "value": 4.17, "unit": "µM"}, {"measurement": "CC50", "setting": "SF-593 (CNS cancer); read-out: LC50", "value": 9.33, "unit": "µM"}, {"measurement": "TGI", "setting": "COLO-205 (colon cancer); COLO-205, NCI-60", "value": 3.98, "unit": "µM"}, {"measurement": "CC50", "setting": "COLO-205 (colon cancer); Homo sapiens, COLO 205, read-out: LC50", "value": 9.33, "unit": "µM"}, {"measurement": "GI50", "setting": "COLO-205 (colon cancer); Homo sapiens, COLO-205, NCI-60", "value": 1.66, "unit": "µM"}, {"measurement": "CC50", "setting": "[2]; OVACAR3, read-out: LC50", "value": 7.41, "unit": "µM"}, {"measurement": "GI50", "setting": "[2]; OVACAR3, OVACAR-3, NCI-60", "value": 1.38, "unit": "µM"}, {"measurement": "TGI", "setting": "[2]; OVACAR-3, NCI-60", "value": 3.24, "unit": "µM"}, {"measurement": "CC50", "setting": "[3]; Homo sapiens, MDA-MB-468, read-out: LC50", "value": 8.71, "unit": "µM"}, {"measurement": "GI50", "setting": "[3]; Homo sapiens, MDA-MB-468, NCI-60", "value": 1.35, "unit": "µM"}, {"measurement": "TGI", "setting": "[3]; MDA-MB-468, NCI-60", "value": 3.39, "unit": "µM"}, {"measurement": "LC50 (concentration killing 50% of cells)", "setting": "UO-31 (renal cancer); Homo sapiens, UO-31, read-out: LC50", "value": 9.77, "unit": "µM"}, {"measurement": "GI50", "setting": "UO-31 (renal cancer); Homo sapiens, UO-31, NCI-60", "value": 1.74, "unit": "µM"}, {"measurement": "TGI", "setting": "UO-31 (renal cancer); UO-31, NCI-60", "value": 4.07, "unit": "µM"}, {"measurement": "CC50", "setting": "M14 (melanoma); Homo sapiens, M14, read-out: LC50", "value": 7.94, "unit": "µM"}, {"measurement": "GI50", "setting": "M14 (melanoma); Homo sapiens, M14, NCI-60", "value": 1.38, "unit": "µM"}, {"measurement": "TGI", "setting": "M14 (melanoma); M14, NCI-60", "value": 3.31, "unit": "µM"}, {"measurement": "TGI", "setting": "BT-549 (breast cancer); BT-549, NCI-60", "value": 2.29, "unit": "µM"}, {"measurement": "CC50", "setting": "BT-549 (breast cancer); Homo sapiens, BT-549, read-out: LC50", "value": 5.62, "unit": "µM"}, {"measurement": "GI50", "setting": "BT-549 (breast cancer); Homo sapiens, BT-549, NCI-60", "value": 0.87, "unit": "µM"}, {"measurement": "CC50", "setting": "[4]; Homo sapiens, MDA-MB-231, read-out: LC50", "value": 8.51, "unit": "µM"}, {"measurement": "GI50", "setting": "[4]; Homo sapiens, MDA-MB-231/ATCC, NCI-60", "value": 1.78, "unit": "µM"}, {"measurement": "TGI", "setting": "[4]; MDA-MB-231/ATCC, NCI-60", "value": 3.89, "unit": "µM"}, {"measurement": "IC50", "setting": "[5]", "value": "4.73 ± 0.79", "unit": "µM"}, {"measurement": "IC50", "setting": "[6]; Homo sapiens, HTB-54, 48 h, MTT, mean ± SD, read-out: IC50 HTB-54 (lung)", "value": "5.09 ± 0.28", "unit": "µM"}, {"measurement": "viability at 10 µM", "setting": "[6]; Homo sapiens, HTB-54, 10 µM, 48 h, MTT, read-out: cell viability, percentage of live cells", "value": 33.1, "unit": "%"}, {"measurement": "viability at 50 µM", "setting": "[6]; Homo sapiens, HTB-54, 50 µM, 48 h, MTT, read-out: cell viability, percentage of live cells", "value": 30.9, "unit": "%"}, {"measurement": "SI (selectivity index) lung", "setting": "[6]; IC50 (BEAS-2B)/IC50 (HTB-54)", "value": 0.93}]}
